# According to ChEMBL document CHEMBL5360532, “Current scenario of quinolone hybrids with potential antibacterial activity against ESKAPE pathogens” (Eur J Med Chem, 2023):
# Tests used:
# Staphylococcus aureus [1] = experiment: Antibacterial activity against Staphylococcus aureus ATCC 29213 assessed as bacterial growth inhibition measured after 24 hrs by agar disc diffusion assay; type: functional
# Pseudomonas aeruginosa [2] = experiment: Antibacterial activity against Pseudomonas aeruginosa ATCC 27853 assessed as bacterial growth inhibition measured after 24 hrs by agar disc diffusion assay; type: functional
# Escherichia coli [3] = experiment: Antibacterial activity against Escherichia coli ATCC 25922 assessed as bacterial growth inhibition measured after 24 hrs by agar disc diffusion assay; type: functional
# Staphylococcus aureus [4] = experiment: Antibacterial activity against Staphylococcus aureus ATCC 25923 assessed as bacterial growth inhibition measured after 18 to 24 hrs by two fold microdilution assay; type: functional; conditions: time 18-24 hrs
# Escherichia coli [5] = experiment: Antibacterial activity against Escherichia coli ATCC 35218 assessed as bacterial growth inhibition measured after 18 to 24 hrs by two fold microdilution assay; type: functional; conditions: ATCC35218, time 18-24 hrs
# Klebsiella pneumoniae [6] = experiment: Antibacterial activity against Klebsiella pneumoniae assessed as bacterial growth inhibition measured after 18 to 24 hrs by two fold microdilution assay; type: functional; conditions: time 18-24 hrs
# Escherichia coli [7] = experiment: Antibacterial activity against Escherichia coli clinical isolate assessed as zone of inhibition at 50 mg/ml by agar diffusion assay; type: functional; conditions: read-out: IZ
# Staphylococcus aureus [8] = experiment: Antibacterial activity against Staphylococcus aureus clinical isolate assessed as zone of inhibition at 50 mg/ml by agar diffusion assay; type: functional; conditions: read-out: IZ
# Escherichia coli [9] = experiment: Antibacterial activity against Escherichia coli ATCC 25922 assessed as zone of inhibition at 50 mg/ml by agar diffusion assay; type: functional; conditions: read-out: IZ
# Staphylococcus aureus [10] = experiment: Antibacterial activity against Staphylococcus aureus ATCC 25923 assessed as zone of inhibition at 50 mg/ml by agar diffusion assay; type: functional; conditions: read-out: IZ
# Staphylococcus aureus [11] = experiment: Potency index, ratio of ciprofloxacin MIC to test compound MIC for antimicrobial activity against Staphylococcus aureus assessed as bacterial growth inhibition by agar cup diffusion assay; type: functional
# Escherichia coli [12] = experiment: Potency index, ratio of ciprofloxacin MIC to test compound MIC for antimicrobial activity against Escherichia coli assessed as bacterial growth inhibition by agar cup diffusion assay; type: functional
# Pseudomonas aeruginosa [13] = experiment: Antibacterial activity against Pseudomonas aeruginosa assessed as bacterial growth inhibition by agar cup diffusion assay; type: functional
# Staphylococcus aureus [14] = experiment: Antibacterial activity against Staphylococcus aureus assessed as bacterial growth inhibition by agar cup diffusion assay; type: functional
# [15] = test system: Mycobacterium tuberculosis; experiment: Antimycobacterial activity against pan sensitive Mycobacterium tuberculosis R2012-123 assessed as bacterial growth inhibition by agar cup diffusion assay; type: functional
# [16] = test system: Mycobacterium tuberculosis; experiment: Antimycobacterial activity against Mycobacterium tuberculosis H37Rv assessed as bacterial growth inhibition by agar cup diffusion assay; type: functional
# Escherichia coli [17] = experiment: Antibacterial activity against Escherichia coli assessed as bacterial growth inhibition by agar cup diffusion assay; type: functional
# Klebsiella pneumoniae [18] = experiment: Antibacterial activity against Klebsiella pneumoniae assessed as bacterial growth inhibition by agar cup diffusion assay; type: functional
# Staphylococcus aureus [19] = experiment: Antibacterial activity against Staphylococcus aureus ATCC 25923 assessed as bacterial growth inhibition measured after 18 to 24 hrs by agar dilution assay; type: functional; conditions: time 18-24 hrs
# Staphylococcus aureus [20] = experiment: Potency index, ratio of ciprofloxacin MIC to test compound MIC for antibacterial activity against Staphylococcus aureus ATCC 25923 assessed as bacterial growth inhibition measured after 18 to 24 hrs by agar dilution assay; type: functional; conditions: time 18-24 hrs
# Klebsiella pneumoniae [21] = experiment: Antibacterial activity against Klebsiella pneumoniae AUMC B-77 assessed as bacterial growth inhibition by agar cup diffusion method; type: functional
# Aspergillus fumigatus = experiment: Antifungal activity against Aspergillus fumigatus assessed as fungal growth inhibition by agar cup diffusion assay; type: functional
# Aspergillus niger [22] = experiment: Antifungal activity against Aspergillus niger assessed as fungal growth inhibition by agar cup diffusion assay; type: functional
# Escherichia coli [23] = experiment: Antibacterial activity against Escherichia coli assessed as bacterial growth inhibition by broth microdilution assay; type: functional
# Staphylococcus aureus [24] = experiment: Potency index, ratio of norfloxacin MIC to test compound MIC for antimicrobial activity against Staphylococcus aureus assessed as bacterial growth inhibition measured after 18 to 24 hrs inhibition by broth microdilution assay; type: functional; conditions: time 18-24 hrs
# Staphylococcus aureus [25] = experiment: Antibacterial activity against Staphylococcus aureus assessed as bacterial growth inhibition by broth microdilution assay; type: functional
# Candida albicans = experiment: Antifungal activity against Candida albicans assessed as fungal growth inhibition by agar well diffusion assay; type: functional
# Aspergillus niger [26] = experiment: Antifungal activity against Aspergillus niger assessed as fungal growth inhibition by agar well diffusion assay; type: functional
# [27] = Anticancer activity against EAC cell assessed as cell growth inhibition measured after 24 to 72 hrs by MTT assay; type: functional, cell-based; conditions: Ehrlich
# WRL68 = experiment: Anticancer activity against human WRL68 cell assessed as cell growth inhibition measured after 24 to 72 hrs by MTT assay; type: functional, cell-based
# HT-29 = experiment: Anticancer activity against human HT-29 cell assessed as cell growth inhibition measured after 24 to 72 hrs by MTT assay; type: functional, cell-based
# Klebsiella pneumoniae [28] = experiment: Antibacterial activity against Klebsiella pneumoniae assessed as bacterial growth inhibition by agar streak dilution assay; type: functional
# Escherichia coli [29] = experiment: Antibacterial activity against Escherichia coli assessed as bacterial growth inhibition by agar streak dilution assay; type: functional
# Staphylococcus aureus [30] = experiment: Antibacterial activity against Staphylococcus aureus assessed as bacterial growth inhibition by agar streak dilution assay; type: functional
# Enterococcus = experiment: Antibacterial activity against vancomycin resistant Enterococcus assessed as bacterial growth inhibition measured after 16 to 24 hrs by broth microdilution assay; type: functional; conditions: time 16-24 hrs
# Haemophilus influenzae = experiment: Antibacterial activity against Haemophilus influenzae assessed as bacterial growth inhibition measured after 16 to 24 hrs by broth microdilution assay; type: functional; conditions: time 16-24 hrs
# Staphylococcus aureus [31] = experiment: Antibacterial activity against methicillin resistant Staphylococcus aureus assessed as bacterial growth inhibition measured after 16 to 24 hrs by broth microdilution assay; type: functional; conditions: time 16-24 hrs
# Streptococcus agalactiae = experiment: Antibacterial activity against Streptococcus agalactiae assessed as bacterial growth inhibition measured after 16 to 24 hrs by broth microdilution assay; type: functional; conditions: time 16-24 hrs
# Staphylococcus aureus [32] = experiment: Antibacterial activity against Staphylococcus aureus assessed as bacterial growth inhibition measured after 16 to 24 hrs by broth microdilution assay; type: functional; conditions: time 16-24 hrs
# Acinetobacter baumannii = experiment: Antibacterial activity against Acinetobacter baumannii assessed as bacterial growth inhibition by agar dilution assay; type: functional
# Escherichia coli [33] = experiment: Antibacterial activity against Escherichia coli ATCC 8739 assessed as bacterial growth inhibition by two fold microdilution assay; type: functional
# Staphylococcus aureus [34] = experiment: Antibacterial activity against Staphylococcus aureus assessed as bacterial growth inhibition by agar dilution assay; type: functional
# Pseudomonas aeruginosa [35] = experiment: Antibacterial activity against Pseudomonas aeruginosa assessed as bacterial growth inhibition by broth microdilution assay; type: functional
# Staphylococcus aureus [36] = experiment: Antibacterial activity against methicillin resistant Staphylococcus aureus assessed as bacterial growth inhibition by agar dilution assay; type: functional
# Klebsiella pneumoniae [37] = experiment: Antibacterial activity against Klebsiella pneumoniae assessed as bacterial growth inhibition by two fold microdilution assay; type: functional
# Staphylococcus aureus [38] = experiment: Antibacterial activity against Staphylococcus aureus ATCC 6538P assessed as bacterial growth inhibition by two fold microdilution assay; type: functional
# Pseudomonas aeruginosa [39] = experiment: Antibacterial activity against Pseudomonas aeruginosa ATCC 27853 assessed as bacterial growth inhibition by agar dilution assay; type: functional
# MDA-MB-231 = experiment: Growth inhibition of human MDA-MB-231 cells measured after 48 hrs by SRB assay; type: functional
# SiHa = experiment: Growth inhibition of human SiHa cells measured after 48 hrs by SRB assay; type: functional
structure (smiles),measurement,setting,value
COC(=O)[C@H](C)NC(=O)c1cc(=O)n(Cc2cn([C@@H](NC(=O)c3ccccc3)C(=O)OC)nn2)c2ccccc12,MIC,Staphylococcus aureus [1],19 µg/mL
same,MIC,Pseudomonas aeruginosa [2],19 µg/mL
same,MIC,Escherichia coli [3],19 µg/mL
CCn1cc(C(=O)O)c(=O)c2cc(F)c(N3CCN(Cn4nc(CN5CCN(c6ccc(F)cc6)CC5)n(-c5ccccc5)c4=O)CC3)cc21,MIC,Staphylococcus aureus [4],< 0.24 µg/mL
same,MIC,Escherichia coli [5],< 0.24 µg/mL
same,MIC,Klebsiella pneumoniae [6],< 0.24 µg/mL
COC(=O)[C@H](C)NC(=O)c1cc(=O)n(Cc2cn(C3O[C@H]4OC(C)(C)O[C@H]4[C@@H]4OC(C)(C)OC[C@@H]34)nn2)c2ccccc12 (some centres undefined),MIC,Staphylococcus aureus [1],9.75 µg/mL
same,MIC,Pseudomonas aeruginosa [2],9.75 µg/mL
same,MIC,Escherichia coli [3],9.75 µg/mL
COC(=O)c1cn(C2CC2)c2cc(N3CCN(C(=O)c4nnn(-c5ccc(OC)cc5)c4N)CC3)c(F)cc2c1=O,zone of inhibition at 50000 µg/mL,Escherichia coli [7],26.3 mm
same,zone of inhibition at 50000 µg/mL,Staphylococcus aureus [8],26.3 mm
same,zone of inhibition at 50000 µg/mL,Escherichia coli [9],26.3 mm
same,zone of inhibition at 50000 µg/mL,Staphylococcus aureus [10],26.3 mm
O=C(CN1CCN(c2cc3c(cc2F)c(=O)c(C(=O)O)cn3C2CC2)CC1)Nc1nnc(-c2ccccc2)s1,Ratio,Staphylococcus aureus [11],4.6
same,Ratio,Escherichia coli [12],4.6
same,MIC,Pseudomonas aeruginosa [13],7.4 µg/mL
same,MIC,Staphylococcus aureus [14],1.12 µg/mL
same,MIC,[15],8 µg/mL
same,MIC,[16],8 µg/mL
same,MIC,Escherichia coli [17],1.12 µg/mL
same,MIC,Klebsiella pneumoniae [18],1.12 µg/mL
CCOC(=O)c1cn(C2CC2)c2cc(N3CCN(Cc4cn(-c5ccc(C(C)=O)cc5)nn4)CC3)c(F)cc2c1=O,MIC,Staphylococcus aureus [19],3.12 µg/mL
same,Ratio,Staphylococcus aureus [20],2
CCn1cc(C(=O)O)c(=O)c2cc(F)c(N3CCN(CC(=O)Nc4ccc(/C(C)=N/O)cc4)CC3)cc21,MIC,Klebsiella pneumoniae [21],0.08 µg/mL
Nc1ccc(-c2nnc(-c3cn(C4CC4)c4cc(C(=O)c5ncc[nH]5)c(F)cc4c3=O)o2)c(O)c1,MIC,Aspergillus fumigatus,9.8 µg/mL
same,MIC,Aspergillus niger [22],9.8 µg/mL
same,MIC,Pseudomonas aeruginosa [13],0.2 µg/mL
same,MIC,Escherichia coli [17],0.2 µg/mL
O=C(O)c1cn(C2CC2)c2cc(N3CCN(Cc4nnc(-c5ccc(O)cc5)o4)CC3)c(F)cc2c1=O,Ratio,Staphylococcus aureus [11],>=4
same,MIC,Escherichia coli [23],≤ 0.125 µg/mL
same,Ratio,Staphylococcus aureus [24],>=4
same,MIC,Staphylococcus aureus [14],0.2 µg/mL
same,MIC,Staphylococcus aureus [25],0.125 µg/mL
Clc1ccccc1C(c1ccccc1)(c1ccccc1)n1ccnc1 [CLOTRIMAZOLE],MIC,Candida albicans,1.28 µg/mL
same,MIC,Aspergillus niger [26],1.56 µg/mL
COc1cccc2c1C(=O)c1c(O)c3c(c(O)c1C2=O)C[C@@](O)(C(=O)CO)C[C@@H]3O[C@H]1C[C@H](N)[C@H](O)[C@H](C)O1 [DOXORUBICIN],IC50,[27],0.259 µM
same,IC50,WRL68,0.259 µM
same,IC50,HT-29,0.259 µM
Cc1c(F)c(N2CCNC(C)C2)cc2c1c(=O)c(C(=O)O)cn2C1CC1 (centres undefined) [GREPAFLOXACIN],MIC,Klebsiella pneumoniae [28],0.5 µg/mL
same,MIC,Escherichia coli [29],0.5 µg/mL
same,MIC,Staphylococcus aureus [30],0.5 µg/mL
CC(=O)NC[C@H]1CN(c2ccc(N3CCOCC3)c(F)c2)C(=O)O1 [LINEZOLID],MIC,Enterococcus,1 µg/mL
same,MIC,Haemophilus influenzae,1 µg/mL
same,MIC,Staphylococcus aureus [31],1 µg/mL
same,MIC,Streptococcus agalactiae,1 µg/mL
same,MIC,Staphylococcus aureus [32],1 µg/mL
CCn1cc(C(=O)O)c(=O)c2cc(F)c(N3CCNCC3)cc21 [NORFLOXACIN],MIC,Klebsiella pneumoniae [21],0.5 µg/mL
same,MIC,Acinetobacter baumannii,≥ 4 µg/mL
same,MIC,Escherichia coli [33],≤ 0.125 µg/mL
same,MIC,Staphylococcus aureus [34],≥ 4 µg/mL
same,MIC,Escherichia coli [23],≤ 0.125 µg/mL
same,MIC,Pseudomonas aeruginosa [35],≤ 0.125 µg/mL
same,MIC,Staphylococcus aureus [36],≥ 4 µg/mL
same,MIC,Klebsiella pneumoniae [37],≤ 0.125 µg/mL
same,MIC,Staphylococcus aureus [25],≤ 0.125 µg/mL
same,MIC,Staphylococcus aureus [38],≤ 0.125 µg/mL
same,MIC,Pseudomonas aeruginosa [39],≥ 4 µg/mL
CC/C(=C(\c1ccccc1)c1ccc(OCCN(C)C)cc1)c1ccccc1 [TAMOXIFEN],GI50,MDA-MB-231,0.24 µM
same,GI50,SiHa,0.12 µM
